The subject of the experiment is CD4+ T cell. The settings on record: Human immunodeficiency virus, dose 0.05-10 nM.

`C/C=C/[C@H]1O[C@@](O)([C@@H](C)[C@H](O)[C@H](C)[C@H]2OC(=O)/C(OC)=C/C(C)=C/[C@@H](C)[C@@H](O)[C@@H](CC)[C@@H](O)[C@H](C)C/C(C)=C/C=C/[C@@H]2OC)C[C@@H](O[C@H]2C[C@@H](O)[C@H](OC(N)=O)[C@@H](C)O2)[C@@H]1C`: the inhibition entry is “Dose-Dependent Effect”.
